Tests used:
MHC and myogenin = test: Western blot of myoblast differentiation markers in C2C12 cells; format: cell-based, mouse; conditions: 500 μM H2O2, vs DMSO group, FIG. 4
Description: (§1) At this time, 500 μM of H2O2 (hydrogen peroxide) was treated with the differentiation medium to create conditions for inhibiting differentiation. Thereafter, the differentiation medium containing H2O2 and the drugs were exchanged every 2 days. After 4 to 6 days, when the shape of myotubes was confirmed, the myotubes were added with 80 μl of a lysis buffer and then vortexed, and centrifuged for 10 minutes at 14000 rpm, and the obtained proteins were added with a 5× sample buffer and reacted in 95° C. boiling water for 5 minutes. 8 μg of the reacted proteins was loaded on 8% and 12% SDS-PAGE gels, developed, and then transferred to a membrane. The membrane was blocked with PBST containing 5% skim milk at room temperature for 1 hour. The membrane was washed with 1×PBST, added with a primary antibody diluted at 1:1000, and then O/N reacted at 4° C. The next day, the membrane was washed with 1×PBST three times every 10 minutes, added with a secondary antibody diluted at 1:5000 in PBST containing 5% skim milk, and then reacted at room temperature for 1 hour. The membrane was washed with 1×PBST three times every 10 minutes, reacted in an enhanced chemiluminescent solution (ECL), and then exposed to an X-ray film to obtain a Western blot analysis result.

p70S6K = test: Western blot of AKT/mTOR pathway sub-signal p70S6K in C2C12 cells; format: cell-based, mouse; conditions: 10 μM, 500 μM H2O2, FIG. 4
Description: as §1

4-EBP = test: Western blot of AKT/mTOR pathway sub-signal 4-EBP in C2C12 cells; format: cell-based, mouse; conditions: 10 μM, 500 μM H2O2, FIG. 4
Description: as §1

[1] = tested on: MSCs derived from MDX mice; test: Proliferation of muscle satellite cells (MSCs) derived from MDX mice; format: cell-based, mouse; conditions: 100 μM, 48 hours, vs PBS control, FIG. 6
Text: In MDX mice (Jackso lab, stock no. 001801) (including point mutations in a DMD gene), as the most popular experimental model for testing Duchenne muscular dystrophy, older MDX mice over 40 weeks of age that maintained a homogenous transgenic state through mating and breeding and wild-type mice (normal mice) were anesthetized with isoflurane and then both tibialis anterior (TA) muscles were punctured 30 times each with a 26 G syringe (Korea Vaccine, Cat no. 27-00024-01) to induce physical muscle destruction. On day 3 after inducing muscle destruction, the mice were sacrificed and the TA muscles were separated, washed with 1×PBS (137 mM NaCl, 2.7 mM KCl, 10 mM Na2HPO4, […]) twice, and then chopped for 5 minutes with a razor blade, added in serum-free DMEM (GE healthcare, Cat no. SH30243.01) diluted with collagenase II (ThermoFisher, Cat no. 17101015) to a concentration of 2 mg/ml and digested for 1 hour. Thereafter, a supernatant was removed by centrifugation at 300×g for 5 minutes, washed once with serum-free DMEM, and passed through a 70 μm strainer. […] In the experiment, the average and each standard deviation of measurement results of three or more times were obtained, and significance with the control was determined through T testing (*: […].<0.001).

C2C12 cells = test: Myoblast differentiation of C2C12 cells seen by microscope under differentiation-suppressing condition (H2O2); format: cell-based, mouse; conditions: 10 μM, 500 μM H2O2, FIG. 3
SOD1 G93A mice = test: Duration of life of Lou Gehrig (ALS) animal model mice; format: in vivo, mouse
Text: The presence of symptoms and mortality were confirmed through a daily behavioral test set.

For `CN(C)CCOC(c1ccccc1)c1ccccc1.Cn1c(=O)c2[nH]c(Cl)nc2n(C)c1=O` [OC-501, dimenhydrinate], the “expression levels of MHC and myogenin” value (MHC and myogenin; 5 μM) was “increased” and the “expression levels of MHC and myogenin” value (MHC and myogenin; 10 μM) was “increased”.

For `CC(C)(CO)[C@@H](O)C(=O)NCCC(=O)O` [OC-504, calcium pantothenate], the “expression of P70S6K” value (p70S6K) was “increased”, the “expression of 4-EBP compared to the control group (DMSO)” value (4-EBP) was “increased” and the “expression levels of MHC and myogenin” value (MHC and myogenin; 10 μM) was “increased”. The “proliferation of MSCs derived from MDX mice” value [1] was “significantly promoted”, the myoblast differentiation (C2C12 cells) was “significantly increased” and the “total median duration of life compared to the drug non-administered group” value (SOD1 G93A mice; 30 mpk (combination each 30 mpk), intraperitoneally from 10 weeks old, FIG. 1) was “increased statistically significantly”. The “prolongation of median duration of life after the appearance of Lou Gehrig's symptoms” value (SOD1 G93A mice; 30 mpk intraperitoneally from 10 weeks old, non-administered group about 5 weeks, FIG. 2) was “about 2 weeks” and the “prolongation of duration of life converted to Lou Gehrig's patients” value (SOD1 G93A mice; extrapolated: 5 weeks in mice taken as about 2 years median duration of life in patients) was “about 9.6 months”.
